Common to all, as to assay: Antifungal activity, MIC by disc (diffusion) method
The subject of one assay is C. parapsilosis. In kind it is cell-based, Candida parapsilosis. Particulars: Lodderomyces parapsilosis, YMG agar, 24 hr at 28° C., read-out: MIC (minimum inhibitory concentration) C. parapsilosis. On the procedure: (§1) Measurement Method of Antifungal Activity in Various Compounds
(§2) The minimum inhibitory concentration (MIC) was measured by a disc method (diffusion method). The disc method is one kind of the diffusion method, and is a method in which filter paper (disc) impregnated with an antifungal substance at a given concentration is placed on an agar medium (test plate) coated with a test bacterium and cultivated. The disc absorbs water in the medium, diffuses the antifungal substance and forms a given concentration gradient. As a result, the test bacterium forms a growth inhibition zone (circle) in the periphery of the disc, and the level of sensitivity to the antifungal substance is determined from the diameter of the inhibition circle.
(§3) Using the aforementioned method, MIC of various compounds was measured.
(§4) i: In a 100 mL flask, 20 mL of YMG or Mueller Hinton medium is produced.
(§5) ii: A loopful of the test bacterium is dissolved in the medium.
(§6) iii: The medium is cultured at 200 rpm for 24 hr in a rotary shaker set to 28° C.
(§7) i: In a 300 mL flask, 100 mL of YMG or Mueller Hinton agar medium (low melting point agar) is produced.
(§8) ii: After cooling to 37° C.-40° C., preculture medium (1 mL) is added and the mixture is agitated.
(§9) iii: The mixture is dispensed to a square petri dish (size: 100*150*17 mm) by 20 mL each.
(§10) iv: The dish is stood at room temperature until the agar is solidified.
(§11) i: The compound is diluted in ½ dilution series in 10 stages (timely changed according to compound), 50 μL of solution/pulp at each dilution stage is produced, the organic solvent is dried at room temperature and placed on a test plate.
(§12) ii: After culturing T. rubrum for 48 hr and other test bacteria for 24 hr at 28° C. in an incubator, the size of the inhibition circle was measured.
(§13) The medium composition for culture which was used for the aforementioned preculture is shown below.
(§14) [Medium Compositions for Preculture and Test Plate]
(§15) <<YMG Medium>>: For Fungus
(§16) Agar, powder 0.8% * added only when producing test plate

The next assay relates to T. mentagrophytes. In kind it is cell-based. The settings on record: Trichophyton mentagrophytes, YMG agar, 24 hr at 28° C., read-out: MIC (minimum inhibitory concentration) T. mentagrophytes. On the procedure:
as §1, §2, §3, §4, §5, §6, §7, §8, §9, §10, §11, §12, §13, §14, §15, §16

The subject of another assay is T. rubrum. In kind it is cell-based. Particulars: Trichophyton rubrum, YMG agar, 48 hr at 28° C., read-out: MIC (minimum inhibitory concentration) T. rubrum. As to the method: as §1, §2, §3, §4, §5, §6, §7, §8, §9, §10, §11, §12, §13, §14, §15, §16
The next assay relates to A. fumigatus. The assay is classed as cell-based. Particulars: Aspergillus fumigatus, YMG agar, 24 hr at 28° C., read-out: MIC (minimum inhibitory concentration) A. fumigatus. As to the method:
as §1, §2, §3, §4, §5, §6, §7, §8, §9, §10, §11, §12, §13, §14, §15, §16

In another assay the test system is Saccharomyces. In kind it is cell-based. The settings on record: YMG agar, 24 hr at 28° C., read-out: MIC (minimum inhibitory concentration) Saccharomyces. On the procedure: as §1, §2, §3, §4, §5, §6, §7, §8, §9, §10, §11, §12, §13, §14, §15, §16

Values after ≈ are worked out from the molar mass of the structure shown.

`CCC1OS(=O)(=O)N2OC12CC` (centres unmarked) [II-3b]: the MIC is 4 µg/mL (≈ 20.7 µM) with C. parapsilosis; 2 µg/mL (≈ 10.4 µM) in the assay on T. mentagrophytes; 2 µg/mL (≈ 10.4 µM) in the assay on T. rubrum; 4 µg/mL (≈ 20.7 µM) in the assay on A. fumigatus; 4 µg/mL (≈ 20.7 µM) with Saccharomyces.

On to `O=S1(=O)OCC2(c3ccccc3)ON21` (centres unmarked) [II-3c], for which the MIC in the assay on C. parapsilosis was 8 µg/mL (≈ 37.5 µM); in the assay with T. mentagrophytes it was 2 µg/mL (≈ 9.38 µM); in the assay on T. rubrum, 2 µg/mL (≈ 9.38 µM); in the assay with A. fumigatus, 8 µg/mL (≈ 37.5 µM); in the assay with Saccharomyces it was 8 µg/mL (≈ 37.5 µM).

`O=S1(=O)OCC2(c3ccc(Cl)cc3)ON21` (centres unmarked) [II-3d]: the MIC with C. parapsilosis was 8 µg/mL (≈ 32.3 µM); with T. mentagrophytes, 2 µg/mL (≈ 8.08 µM); in the assay on T. rubrum, 2 µg/mL (≈ 8.08 µM); in the assay on A. fumigatus, 8 µg/mL (≈ 32.3 µM); in the assay on Saccharomyces, 8 µg/mL (≈ 32.3 µM).

For the molecule `CCCCCCCCN1CC2(c3ccccc3)ON2S1(=O)=O` (centres unmarked) [II-3e], the MIC with C. parapsilosis was 8 µg/mL (≈ 24.7 µM); with T. mentagrophytes it was 2 µg/mL (≈ 6.16 µM); in the assay with T. rubrum, 2 µg/mL (≈ 6.16 µM); with A. fumigatus it was 8 µg/mL (≈ 24.7 µM); in the assay on Saccharomyces, 8 µg/mL (≈ 24.7 µM).

Turning to `CC1=NS(=O)(=O)N2OC12` (centres unmarked) [II-4a], the MIC in the assay on C. parapsilosis is 8 µg/mL (≈ 54 µM); in the assay on T. mentagrophytes, 2 µg/mL (≈ 13.5 µM); with T. rubrum, 2 µg/mL (≈ 13.5 µM); in the assay with A. fumigatus, 8 µg/mL (≈ 54 µM); with Saccharomyces it was 8 µg/mL (≈ 54 µM).

Consider `CC1=NS(=O)(=O)N2OC12C` (centres unmarked) [II-4b], for which the MIC in the assay on C. parapsilosis was found to be 16 µg/mL (≈ 98.7 µM); in the assay with T. mentagrophytes, 4 µg/mL (≈ 24.7 µM); with T. rubrum, 4 µg/mL (≈ 24.7 µM); with A. fumigatus, 16 µg/mL (≈ 98.7 µM); in the assay on Saccharomyces, 16 µg/mL (≈ 98.7 µM).

Consider `O=S1(=O)N=C(CCc2ccc(F)cc2)C2ON21` (centres unmarked) [II-4c], for which the MIC with C. parapsilosis is 8 µg/mL (≈ 31.2 µM); in the assay with T. mentagrophytes, 2 µg/mL (≈ 7.8 µM); in the assay on T. rubrum it was 2 µg/mL (≈ 7.8 µM); in the assay on A. fumigatus, 8 µg/mL (≈ 31.2 µM); with Saccharomyces, 8 µg/mL (≈ 31.2 µM).

As to `O=S1(=O)N=C(CCc2ccc(Cl)cc2)C2ON21` (centres unmarked) [II-4d], the MIC in the assay with C. parapsilosis was 8 µg/mL (≈ 29.3 µM); in the assay on T. mentagrophytes, 2 µg/mL (≈ 7.33 µM); with T. rubrum, 2 µg/mL (≈ 7.33 µM); in the assay on A. fumigatus, 8 µg/mL (≈ 29.3 µM); in the assay with Saccharomyces, 8 µg/mL (≈ 29.3 µM).

For the molecule `O=S1(=O)N2OC2c2nccn21` (centres unmarked) [II-5a], the MIC is 8 µg/mL (≈ 46.2 µM) in the assay with C. parapsilosis; 2 µg/mL (≈ 11.6 µM) in the assay with T. mentagrophytes; 2 µg/mL (≈ 11.6 µM) with T. rubrum; 8 µg/mL (≈ 46.2 µM) in the assay with A. fumigatus; 8 µg/mL (≈ 46.2 µM) in the assay on Saccharomyces.

`O=S1(=O)N2OC2c2cccn21` (centres unmarked) [II-5b]: the MIC in the assay with C. parapsilosis was determined as 16 µg/mL (≈ 92.9 µM); in the assay with T. mentagrophytes it was 4 µg/mL (≈ 23.2 µM); in the assay with T. rubrum it was 4 µg/mL (≈ 23.2 µM); in the assay on A. fumigatus, 16 µg/mL (≈ 92.9 µM); in the assay on Saccharomyces, 16 µg/mL (≈ 92.9 µM).

Turning to `O=S1(=O)N=C2C(=COc3ccccc32)C2ON21` (centres unmarked) [II-6a], the MIC with C. parapsilosis stood at 4 µg/mL (≈ 16 µM); in the assay with T. mentagrophytes, 1 µg/mL (≈ 4 µM); with T. rubrum, 1 µg/mL (≈ 4 µM); in the assay on A. fumigatus it was 4 µg/mL (≈ 16 µM); with Saccharomyces, 4 µg/mL (≈ 16 µM).

Regarding `O=S1(=O)N=C2C(=COc3ccc(F)cc32)C2ON21` (centres unmarked) [II-6b], the MIC was found to be 4 µg/mL (≈ 14.9 µM) in the assay with C. parapsilosis; 1 µg/mL (≈ 3.73 µM) in the assay on T. mentagrophytes; 1 µg/mL (≈ 3.73 µM) with T. rubrum; 4 µg/mL (≈ 14.9 µM) with A. fumigatus; 4 µg/mL (≈ 14.9 µM) in the assay on Saccharomyces.

With `O=S1(=O)N=C2C(=COc3ccc(Cl)cc32)C2ON21` (centres unmarked) [II-6c], the MIC turned out to be 4 µg/mL (≈ 14.1 µM) in the assay with C. parapsilosis; 1 µg/mL (≈ 3.51 µM) in the assay on T. mentagrophytes; 1 µg/mL (≈ 3.51 µM) with T. rubrum; 4 µg/mL (≈ 14.1 µM) in the assay with A. fumigatus; 4 µg/mL (≈ 14.1 µM) with Saccharomyces.

Values taken from patent US10980813B2, “Antifungal composition” (SEED RESEARCH INSTITUTE CO., LTD., priority 2017, dated 2021).
